Read-outs that look alike come from different tables or passages of the source.
Legend:
Format in all cases: in vivo
[1] = test system: Alopecurus myosuroides (ALOMY); assay: Pre-emergence herbicidal action against ALOMY; details: 320 g/ha; scored visually after about 3 weeks; 100% = plants have died
How it was run: (§1)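 Read-out is visual percent damage relative to untreated pots, with 100% meaning dead plants and 0% meaning no difference, assessed roughly three weeks after treatment. Compounds were applied pre-emergence to the covering soil at up to 320 g/ha.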

Setaria viridis (SETVI) [2] = assay: Pre-emergence herbicidal action against SETVI; details: dosage 320 g/ha
How it was run: as §1

Viola tricolor (VIOTR) [3] = assay: Pre-emergence herbicidal action against VIOTR
How it was run: as §1

Glycine max (GLXMA) = details: pre-emergence, crop plant compatibility, in comparison to untreated controls
How it was run: (§2)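 Scoring: visual, % of untreated control, about 3 weeks after a pre-emergence application to the soil surface. Application used WP or EC formulations diluted in water with 0.5% additive at 600 l/ha; dosage levels are marked by suffixes a, b and c.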

Oryza sativa (ORYSA) [4] = details: pre-emergence, crop plant compatibility, in comparison to untreated controls
How it was run: as §2

[5] = test system: Triticum aestivum (TRZAS); details: pre-emergence, 80 g/ha, crop plant compatibility, in comparison to untreated controls
How it was run: as §2

Zea mays (ZEAMX) [6] = details: pre-emergence, crop plant compatibility, in comparison to untreated controls
How it was run: as §2

[7] = test system: Abutilon theophrasti (ABUTH); assay: Post-emergence herbicidal action against ABUTH; details: visual rating about 3 weeks after treatment vs untreated controls (100% = plants have died, 0% = like control plants)
How it was run: (§3)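 Greenhouse plants sprayed at the one-leaf stage, 2–3 weeks after sowing, with WP or EC formulations plus 0.5% additive at 600 l/ha water. Activity rated visually after about 3 weeks versus untreated controls (100% = dead, 0% = like control), at 320 g/ha or lower.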

[8] = test system: Amaranthus retroflexus (AMARE); assay: Post-emergence herbicidal action against AMARE
How it was run: as §3

Oryza sativa (ORYSA) [9] = details: crop plant compatibility
How it was run: (§4)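 Foliar application at the one-leaf stage: WP/EC formulation, 0.5% additive, 600 l/ha water. Greenhouse-grown in sandy loam. Endpoint is visual % injury relative to untreated controls at about 3 weeks.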

[10] = test system: Triticum aestivum (TRZAS); details: crop plant compatibility, effect vs untreated controls
How it was run: as §4

[11] = test system: Abutilon theophrasti (ABUTH); assay: Pre-emergence herbicidal action against ABUTH; details: Dosage column 320 g/ha (title prints 3200 g/ha); scored visually after about 3 weeks; 100% = plants have died
How it was run: as §1

[12] = test system: Amaranthus retroflexus (AMARE); assay: Pre-emergence herbicidal action against AMARE; details: visual scoring after about 3 weeks vs untreated controls
How it was run: as §1

Avena fatua (AVEFA) [13] = assay: Pre-emergence herbicidal action against AVEFA; details: 320 g/ha, visual scoring after about 3 weeks vs untreated controls
How it was run: as §1

[14] = test system: Echinochloa crus-galli (ECHCG); assay: Pre-emergence herbicidal action against ECHCG; details: dosage 320 g/ha
How it was run: as §1

Lolium rigidum (LOLRI) [15] = assay: Pre-emergence herbicidal action against LOLRI; details: dosage 320 g/ha
How it was run: as §1

[16] = test system: Matricaria inodora (MATIN); assay: Pre-emergence herbicidal action against MATIN
How it was run: as §1

[17] = test system: Polygonum convolvulus (POLCO); assay: Pre-emergence herbicidal action against POLCO
How it was run: as §1

Avena fatua (AVEFA) [18] = assay: Post-emergence herbicidal action against AVEFA; details: 320 g/ha, visual rating about 3 weeks after treatment
How it was run: as §3

[19] = test system: Echinochloa crus-galli (ECHCG); assay: Post-emergence herbicidal action against ECHCG
How it was run: as §3

Lolium rigidum (LOLRI) [20] = assay: Post-emergence herbicidal action against LOLRI; details: dosage 320 g/ha
How it was run: as §3

[21] = test system: Matricaria inodora (MATIN); assay: Post-emergence herbicidal action against MATIN
How it was run: as §3

[22] = test system: Pharbitis purpurea (PHBPU); assay: Post-emergence herbicidal action against PHBPU
How it was run: as §3

[23] = test system: Polygonum convolvulus (POLCO); assay: Post-emergence herbicidal action against POLCO; details: dosage 320 g/ha
How it was run: as §3

Setaria viridis (SETVI) [24] = assay: Post-emergence herbicidal action against SETVI
How it was run: as §3

[25] = test system: Verconica persica (VERPE); assay: Post-emergence herbicidal action against VERPE; details: 320 g/ha, VERPE
How it was run: as §3

Viola tricolor (VIOTR) [26] = assay: Post-emergence herbicidal action against VIOTR
How it was run: as §3

Brassica napus (BRSNW) = details: crop plant compatibility, in comparison to untreated controls
How it was run: as §2

Zea mays (ZEAMX) [27] = details: crop plant compatibility, effect vs untreated controls
How it was run: as §4

[28] = 80 g/ha, visual rating about 3 weeks after treatment vs untreated controls (100% = plants have died, 0% = like control plants)
[29] = 80 g/ha, effect in comparison to untreated controls

**Q.** Which results are given for `CCOC(=O)COc1nn(-c2ccccn2)c(-c2ccc(F)nc2)c1C1CC1` [Example I-78]?
**A.** Pre-emergence action against ALOMY [1]: 90%; Pre-emergence action against SETVI in % (Setaria viridis (SETVI) [2]): 80%; Pre-emergence action against VIOTR in % (Viola tricolor (VIOTR) [3]; 320 g/ha, Viola tricolor): 80%; Pre-emergence action against GLXMA in % (Glycine max (GLXMA); 80 g/ha): 0%; Pre-emergence action against ORYSA in % (Oryza sativa (ORYSA) [4]; 80 g/ha): 0%; Pre-emergence action against ORYSA in % (Oryza sativa (ORYSA) [4]; 320 g/ha): 0%; Pre-emergence action against TRZAS in % [5]: 0%; Pre-emergence action against ZEAMX in % (Zea mays (ZEAMX) [6]; 80 g/ha): 0%; Pre-emergence action against ZEAMX in % (Zea mays (ZEAMX) [6]; 320 g/ha): 0%; Post-emergence action against ABUTH in % ([7]; 80 g/ha): 80%; Post-emergence action against AMARE in % [8, 28]: 80%; Post-emergence action against ORYSA in % (Oryza sativa (ORYSA) [9]; 20 g/ha, effect vs untreated controls): 0%; Post-emergence action against ORYSA in % (Oryza sativa (ORYSA) [9]; [29]): 20%; Post-emergence action against TRZAS in % ([10]; 20 g/ha): 0%; Post-emergence action against TRZAS in % ([10]; 80 g/ha): 20%

**Q.** Which results are given for `CCOC(=O)CSc1nn(-c2ccccn2)c(-c2cncc(F)c2)c1Cl` [Example I-183]?
**A.** Pre-emergence action against ABUTH [11]: 80%; Pre-emergence action against ALOMY [1]: 80%; Pre-emergence action against AMARE in % ([12]; 80 g/ha): 80%; Pre-emergence action against AMARE in % ([12]; 320 g/ha): 100%; Pre-emergence action against AVEFA in % (Avena fatua (AVEFA) [13]): 80%; Pre-emergence action against ECHCG in % [14]: 100%; Pre-emergence action against LOLRI in % (Lolium rigidum (LOLRI) [15]): 90%; Pre-emergence action against MATIN in % ([16]; dosage 80 g/ha): 90%; Pre-emergence action against MATIN in % ([16]; dosage 320 g/ha): 90%; Pre-emergence action against POLCO in % ([17]; dosage 80 g/ha): 80%; Pre-emergence action against POLCO in % ([17]; dosage 320 g/ha): 90%; Pre-emergence action against SETVI in % (Setaria viridis (SETVI) [2]): 90%; Pre-emergence action against VIOTR in % (Viola tricolor (VIOTR) [3]; 320 g/ha, Viola tricolor): 100%; Pre-emergence action against VIOTR in % (Viola tricolor (VIOTR) [3]; dosage 80 g/ha): 80%; Pre-emergence action against GLXMA in % (Glycine max (GLXMA); 80 g/ha): 0%; Pre-emergence action against TRZAS in % [5]: 0%; Post-emergence action against ABUTH in % ([7]; 80 g/ha): 80%; Post-emergence action against ABUTH in % ([7]; 320 g/ha): 80%; Post-emergence action against AMARE in % [8, 28]: 90%; Post-emergence action against AMARE in % ([8]; 320 g/ha, visual rating about 3 weeks after treatment): 90%; Post-emergence action against AVEFA in % (Avena fatua (AVEFA) [18]): 90%; Post-emergence action against ECHCG in % ([19]; dosage 80 g/ha): 90%; Post-emergence action against ECHCG in % ([19]; dosage 320 g/ha): 90%; Post-emergence action against LOLRI in % (Lolium rigidum (LOLRI) [20]): 90%; Post-emergence action against MATIN in % ([21]; dosage 80 g/ha): 80%; Post-emergence action against MATIN in % ([21]; dosage 320 g/ha): 80%; Post-emergence action against PHBPU in % ([22]; dosage 80 g/ha): 80%; Post-emergence action against PHBPU in % ([22]; dosage 320 g/ha): 90%; Post-emergence action against POLCO in % [23]: 90%; Post-emergence action against SETVI in % (Setaria viridis (SETVI) [24]; dosage 80 g/ha): 90%; Post-emergence action against SETVI in % (Setaria viridis (SETVI) [24]; dosage 320 g/ha): 90%; Post-emergence action against VERPE in % [25]: 90%; Post-emergence action against VIOTR in % (Viola tricolor (VIOTR) [26]; 80 g/ha): 90%; Post-emergence action against VIOTR in % (Viola tricolor (VIOTR) [26]; 320 g/ha): 90%

**Q.** `COc1cccnc1-n1nc(OCC(=O)O)c(Br)c1-c1ccc(F)nc1` [Example I-363] was tested. Which “Pre-emergence action against BRSNW in %” value (Brassica napus (BRSNW); 80 g/ha) did it give?
**A.** Its value is 0%.

**Q.** What about the “Pre-emergence action against BRSNW in %” value (Brassica napus (BRSNW); 320 g/ha) of the same compound?
**A.** The value was 20%.

**Q.** And the “Pre-emergence action against GLXMA in %” value (Glycine max (GLXMA); 80 g/ha)?
**A.** Its value is 0%.

**Q.** What about the “Pre-emergence action against GLXMA in %” value (Glycine max (GLXMA); 320 g/ha) of the same compound?
**A.** Its value is 0%.

**Q.** And the “Pre-emergence action against ZEAMX in %” value (Zea mays (ZEAMX) [6]; 80 g/ha)?
**A.** The value was 0%.

**Q.** And the “Pre-emergence action against ZEAMX in %” value (Zea mays (ZEAMX) [6]; 320 g/ha)?
**A.** The value was 0%.

**Q.** What about the “Post-emergence action against ECHCG in %” value ([19]; dosage 320 g/ha) of the same compound?
**A.** The value was 80%.

**Q.** What about the “Post-emergence action against PHBPU in %” value ([22]; dosage 320 g/ha) of the same compound?
**A.** Its value is 80%.

**Q.** What about the “Post-emergence action against ORYSA in %” value (Oryza sativa (ORYSA) [9]; [29]) of the same compound?
**A.** Its value is 0%.

**Q.** What about the “Post-emergence action against ORYSA in %” value (Oryza sativa (ORYSA) [9]; 320 g/ha, effect in comparison to untreated controls) of the same compound?
**A.** Its value is 0%.

**Q.** What about the “Post-emergence action against TRZAS in %” value ([10]; 80 g/ha) of the same compound?
**A.** Its value is 0%.

**Q.** And the “Post-emergence action against ZEAMX in %” value (Zea mays (ZEAMX) [27]; 80 g/ha)?
**A.** The value was 0%.

**Q.** And the “Post-emergence action against ZEAMX in %” value (Zea mays (ZEAMX) [27]; 320 g/ha)?
**A.** The value was 0%.

From patent US20240041042A1, “1-(PYRIDYL)-5-AZINYLPYRAZOLE DERIVATIVES, AND THEIR USE FOR CONTROL OF UNDESIRED PLANT GROWTH” (Bayer Aktiengesellschaft, priority 2020, published 2024)
